Consider five compounds from patent publication US20240285540A1, “FUNCTIONAL THERAPEUTIC INDEX IN THE TREATMENT OF PERIPHERAL IMMUNE DYSFUNCTION” (priority 2023, published 2024).

The subject of this test is C2C12 myoblast cell line. Kind of test: C2C12 myoblast differentiation assay (creatine kinase). Format: cell-based. Conditions: 96 hours, relative to imm3SVD peptide (=100). The method, then: C2C12 myoblast cell line (ATCC, Manassas, VA) was cultured in DMEM medium supplemented with 10% FBS and 1% penicillin/streptomycin. For differentiation, cells were cultured in the same medium, except that 10% FBS was replaced by 2% horse serum. Peptides and NR ligands were added at the indicated concentrations and cells were harvested 96 hours later for assay. Cell extracts were assayed for creatine kinase (CK) per mg protein. CK was measured using the ECPK-100 kit from BioAssay Systems (Hayward, CA). Protein was assayed using the BCA protein assay kit from Thermofisher Scientific (Waltham, MA). CK activities and p values were expressed relative to imm3SVD peptide (=100). **p<0.01; *p<00.05.

[1] abbreviates: Peptide 0.66 uM, no added free ligand.

Marks after values point to notes of the source that are not given here. Primed or numbered codes have the meaning given here. Ends that are not written are not given here. bexarotene = RXR ligand attached at the C-terminus; adapalene = RARβ/γ ligand, attached at C-terminus; GW7647″ = PPARα ligand, attached at C-terminus; GW4064 = FXR ligand, attached at C-terminus

For the compound `CN1c2ccccc2N=C(c2ccc(C(=O)O)cc2)c2cc3c(cc21)C(C)(C)CCC3(C)C` [HX600], the “CK (units/mg)” value (Added ligand 2 uM together with imm3SVD peptide 0.66 uM) is 30.3 ± 16.0* % of imm3SVD peptide. As for “imm3adp: KKGFYKKKQCRPSKGRKRGFCWSVDK C-terminally liganded with adapalene (RARß/γ ligand) (KKGFYKKKQCRPSKGRKRGFCWSVDK-adapalene; cysteine pairing not given here)”, the “CK (units/mg)” value under setting [1] is given as 185.8 ± 23.5** % of imm3SVD peptide. For the compound “imm3bex: SDKKGFYKKKQCRPSKGRKRGFCWSVDK C-terminally liganded with bexarotene (RXR ligand) (SDKKGFYKKKQCRPSKGRKRGFCWSVDK-bexarotene; cysteine pairing not given here)”, the “CK (units/mg)” value under setting [1] is 121.0 ± 6.6* % of imm3SVD peptide. Turning to “imm3fxr: SDKKGFYKKKQCRPSKGRKRGFCWSVDK C-terminally liganded with GW4064 (FXR ligand) (SDKKGFYKKKQCRPSKGRKRGFCWSVDK-GW4064; cysteine pairing not given here)”, the “CK (units/mg)” value under setting [1] was 136.8 ± 19.6* % of imm3SVD peptide. The same measure, in the same setting: to “imm3ppa: SDKKGFYKKKQCRPSKGRKRGFCWSVDK C-terminally liganded with GW7647 (PPARα ligand) (SDKKGFYKKKQCRPSKGRKRGFCWSVDK-{GW7647″}; cysteine pairing not given here)” belongs 155.9 ± 18.8** % of imm3SVD peptide.
